No end group written: not given here.
Columns and labels:
[1] = system: CCKB receptor; test: CCKB receptor luciferase reporter assay, agonism; assay type: cell-based; details: 18 h
Method: (§1) HEK293T cells seeded in 24-well plates were co-transfected by various luciferase reporters (30 ng), the pSV-β-Gal plasmid (3 ng), and the CCKA or CCKB receptor (30 ng). After 1 day, cells were treated in serum-free media for another 18 h with increasing doses of the CCK-8 or CCKsv peptide. For the estimation of antagonistic activities, cells were pre-incubated (30 min.) with the CCKsv peptide before treatment with CCK8 for 18 h. Luciferase activities were determined using luciferase assay kits (Promega) and normalized using β-galactosidase activities. All experiments were performed at least three times in triplicates. Data were analyzed using Graphpad Prism 5.0.

[2] = system: SK-N-MC cells; test: Ewing tumor cell growth, SK-N-MC, crystal violet staining; assay type: cell-based, human; details: CCK-8 0.1 uM, 6 days; for suppression of CCK-stimulated growth, SK-N-MC: serum-free, CCKsv 30 min pre-treatment, at least 3 independent experiments
Method: (§2) SK-N-MC and SK-PN-DW cells (1×10^5) were plated in 12-well plates and allowed to attach for 24–36 h. Cells were then cultured in serum-free media with 0.1 uM of the CCK-8 peptide with or without the CCKsv peptide. Fresh media containing peptides were replaced every two days. […] Cell growth was determined by crystal violet staining.

[3] = system: CCKA receptor; test: CCKA receptor luciferase reporter assay, agonism; assay type: cell-based; details: 18 h, CRE-, SRE-, NFAT-
Method: as §1

[4] = system: SK-PN-DW cells; test: Ewing tumor cell growth, SK-PN-DW, crystal violet staining; assay type: cell-based; details: CCK-8 0.1 uM, 6 days; for suppression of CCK-stimulated growth, SK-PN-DW: serum-free, CCKsv 30 min pre-treatment, at least 3 independent experiments
Method: as §2

[5] = system: release of pancreatic enzymes and the contraction of the gallbladder; details: ref [10]–[12]; cited from earlier work
From the text: Alternative splicing allows the generation of various gene products with different functions from a single gene and is a major mechanism of generating protein diversity in eukaryotes [1]–[5]. At least half, or more, of mammalian genes can be alternatively spliced, [2]. Thus, alternative splicing emerges as a major mechanism of generating protein diversity and splicing of coding regions in peptide hormone genes often results in additional protein domains. Calcitonin and calcitonin-related polypeptide represent the classical example of novel hormone evolution from the same gene ...

[6] = system: various cancer cell lines; details: ref [23]–[27]; cited from earlier work
Method: Because treatment with a CCK antagonist inhibits proliferation of Ewing tumor cells, CCK antagonist could represent a new therapeutic approach in the management of Ewing's tumor patients. To further confirm the potential antagonist function of CCKsv, we checked if CCKsv could inhibit Ewing tumor cell growth stimulated by CCK. Two Ewing tumor cell lines (SK-N-MC and SK-PN-DW) were cultured with the CCK-8 peptide (0.1 uM) in the presence or absenc ...

[7] = system: CCKA receptor; test: CCKA receptor luciferase reporter assay, antagonism of CCK-8; assay type: cell-based; details: CCKsv 0.1 uM or 1 uM, 30 min pre-incubation
Method: as §1

[8] = system: CCKB receptor; test: CCKB receptor luciferase reporter assay, antagonism of CCK-8; assay type: cell-based
Method: as §1

[9] = system: LGR7; test: relaxin-stimulated CRE-luciferase activity in LGR7-expressing cells (specificity control); assay type: cell-based; details: CCKsv 0.1 uM or 1 uM, co-treatment with relaxin, Fig. S6

## CCK-8: CCK-8 peptide purchased from Phoenix Pharmaceuticals Inc. [reference compound]
[1]; HEK293T cells co-transfected with reporter, pSV-β-Gal and CCKB, serum-free, CRE-, SRE-, NFAT-, SRF-RE reporters screened, normalized to β-galactosidase, at least three times in triplicates
  stimulation of luciferase reporters by CCK-8 via CCKB: stimulation of CRE-, SRE- and SRF-RE reporters
[1]; HEK293T, CRE-luciferase, CCKB, compared with other reporter/receptor combinations (Fig. 3C)
  responsiveness to CCK-8 of cells with CRE reporter and CCKB receptor: most responsive to CCK-8 peptide stimulation
[2]; serum-free media, replaced every two days, Fig. 4A
  Ewing tumor cell growth with CCK-8, SK-N-MC: growth stimulated by CCK-8 peptide
[3]; HEK293T cells co-transfected with reporter, pSV-β-Gal and CCKA, serum-free, SRF-RE reporters screened, normalized to β-galactosidase, at least three times in triplicates
  stimulation of luciferase reporters by CCK-8 via CCKA: stimulated CRE- and SRF-RE reporters via CCKA
[4]; serum-free media, replaced every two days, Fig. 4B
  Ewing tumor cell growth with CCK-8, SK-PN-DW: growth stimulated by CCK-8 peptide

## Cholecystokinin [CCK]
[5]
  release of pancreatic enzymes and gallbladder contraction: induce the release of pancreatic enzymes and the contraction of the gallbladder
[6]
  cell proliferation in cancer cell lines: induces cell proliferation

## GKNAASPSLTSALVPRLPMLTLFSSASLMGMTSL-amidated (GKNAASPSLTSALVPRLPMLTLFSSASLMGMTSL-NH2) [CCKsv, splicing variant of human CCK; predicted mature peptide chemically synthesized, C-terminally amidated]
[1]; HEK293T + CCKB, CRE-, SRE-, NFAT-, SRF-RE-luciferase (Gs, Gi, Gq, G12), Fig. S5
  stimulation of G protein pathways by CCKsv via CCKB (agonism): not capable of stimulating different G proteins (Gs, Gi, Gq, and G12)
[2]; 0.1 uM CCKsv, Fig. 4A
  suppression of CCK-stimulated growth, SK-N-MC: 22%
[2]; 1 uM CCKsv, Fig. 4A
  suppression of CCK-stimulated growth, SK-N-MC: 38%
[2]; CCKsv 0.1 uM or 1 uM
  effect of CCKsv on CCK-stimulated growth, SK-N-MC: dose-dependently reduced CCK-stimulated growth
[7]; Fig. 3A, HEK293T, increasing doses of CCK-8, 18 h
  inhibition of CCK-8-stimulated CRE luciferase activity, CCKA: inhibited
[7]; Fig. 3B, HEK293T, increasing doses of CCK-8, 18 h
  inhibition of CCK-8-stimulated SRF luciferase activity, CCKA: inhibited
[7]; HEK293T + CCKA, then CCK-8 (various doses) 18 h, luciferase
  suppression of CCK8 actions by CCKsv pretreatment, CCKA: dose-dependent suppression of CCK8 actions
[8]; Fig. 3C, HEK293T + CCKB, CRE reporter, 1 uM CCKsv (30 min pre-incubation), CCK-8 30 nM, 18 h
  suppression of CCK-8-stimulated CRE luciferase activity: ~60%
[8]; Fig. 3C, HEK293T, CCKsv 0.1 uM or 1 uM, 30 min pre-incubation, increasing doses of CCK-8, 18 h
  inhibition of CCK-8-stimulated CRE luciferase activity, CCKB: inhibited
[8]; Fig. 3D, HEK293T + CCKB, SRF reporter, 1 uM CCKsv (30 min pre-incubation), CCK-8 30 nM, 18 h
  suppression of CCK-8-stimulated SRF luciferase activity: ~60%
[8]; Fig. 3D, HEK293T, CCKsv 0.1 uM or 1 uM, 30 min pre-incubation, increasing doses of CCK-8, 18 h
  inhibition of CCK-8-stimulated SRF luciferase activity, CCKB: inhibited
[8]; Fig. 3E, HEK293T, CCKsv 0.1 uM or 1 uM, 30 min pre-incubation, increasing doses of CCK-8, 18 h
  inhibition of CCK-8-stimulated SRE luciferase activity, CCKB: inhibited
[8]; HEK293T + CCKB, CCKsv 0.1 uM or 1 uM, 30 min pre-incubation, then CCK-8 (various doses) 18 h, luciferase
  suppression of CCK8 actions by CCKsv pretreatment, CCKB: dose-dependent suppression of CCK8 actions
[3]; HEK293T + CCKA, SRF-RE-luciferase (Gs, Gi, Gq, G12), Fig. S5
  stimulation of G protein pathways by CCKsv via CCKA (agonism): not capable of stimulating different G proteins (Gs, Gi, Gq, and G12)
[9]
  effect on luciferase activity stimulated by relaxin: did not alter relaxin signaling
[4]; 0.1 uM CCKsv, Fig. 4B
  suppression of CCK-stimulated growth, SK-PN-DW: 18%
[4]; 1 uM CCKsv, Fig. 4B
  suppression of CCK-stimulated growth, SK-PN-DW: 31%
[4]; CCKsv 0.1 uM or 1 uM
  effect of CCKsv on CCK-stimulated growth, SK-PN-DW: dose-dependently reduced CCK-stimulated growth

From PMC3665846, “Evolution of a Potential Hormone Antagonist following Gene Splicing during Primate Evolution” (PLoS ONE, 2013)
